Results reported in US20250340525A1, “F[…] COMPOUND” ([…], INC., priority 2022, published 2025).

Test system: mice
Test: Anesthetic activity: inhalation exposure of mice in a microcircuit, loss-of-righting-reflex (LORR)
Assay type: in vivo
Conditions: inhalation exposure to vaporized compound/air mixture circulated through microcircuit, dose not quantified
Protocol: A sample of the product mixture formed in Step 4 of the synthesis of Example 1, comprising both cis- and trans-isomers of TTD (the “TTD mixture”), was administered to mice via inhalation exposure in a microcircuit connected using unidirectional airflow valves to a CO2 absorbent chamber and a glass syringe. A small amount of liquid TTD mixture was transferred into the glass syringe where it volatilized. Mice were transferred to the small cylindrical chamber, and the glass syringe was connected to the microcircuit in series. […] Delivery of TTD mixture was discontinued, and the mice were allowed to recover.
Separately, the trans-isomer of TTD isolated in step 5 of Example 1 above was administered to mice via inhalation exposure in a microcircuit connected using unidirectional airflow valves to a CO2 absorbent chamber and a glass syringe. A small amount of the TTD was transferred into the glass syringe where it volatilized. Mice were transferred to the small cylindrical chamber, and the glass syringe was connected to the microcircuit in series. […] Delivery of the TTD was discontinued, and the mice were allowed to recover.

Row | SMILES | loss-of-righting-reflex (LORR) / anesthetic activity
1 | FC1OC(F)(C(F)(F)F)OC1F (centres unmarked) [TTD mixture, 2,4,5-trifluoro-2-(trifluoromethyl)-1,3-dioxolane] | indicated a loss-of-righting-reflex (LORR)
2 | F[C@@H]1OC(F)(C(F)(F)F)O[C@H]1F (relative stereo) [trans-isomer of TTD, trans-2,4,5-trifluoro-2-trifluoromethyl-1,3-dioxolane] | indicated a loss-of-righting-reflex (LORR)
